Values of other authors, collected in patent US8759069B2, “Contaminant control in Zymomonas fermentation using hop acids” (priority 2012, dated 2014).

Legend:
[1] = test system: Zymomonas mobilis strain ZM4; details: antibiotic concentrations that are safe to use with yeast
bacterial contamination = details: batch Zymomonas mobilis fermentation for ethanol production

Molecule	effect on Zymomonas mobilis strain ZM4 [1]	control of bacterial contamination (bacterial contamination)
CC1(C)S[C@@H]2[C@H](NC(=O)Cc3ccccc3)C(=O)N2[C@H]1C(=O)O [penicillin G]	safe for use with Zymomonas	successfully used to control bacterial contamination
[H]/N=C(/N)N[C@H]1[C@H](O)[C@@H](O)[C@H](O[C@@H]2O[C@@H](C)[C@](O)(C=O)[C@H]2O[C@@H]2O[C@@H](CO)[C@H](O)[C@@H](O)[C@@H]2NC)[C@@H](N/C(N)=N\[H])[C@@H]1O [streptomycin]	inhibitory to growth	–
polymixin	inhibitory to growth	–
